From paper PMC6736568, “Discovery of Novel Anti-cryptosporidial Activities From Natural Products by in vitro High-Throughput Phenotypic Screening” (Frontiers in Microbiology, 2019)
Where a name gives a salt, the structure may show the parent alone. Read-outs that look alike come from different tables or passages of the source.

Key:
Cryptosporidium parvum = test: qRT-PCR assay of the growth of C. parvum in vitro in HCT-8 host cells (primary and secondary screening, EC50); format: cell-based; settings: Cryptosporidium parvum, HCT-8; for inhibition at 10 µM: primary screening at 10 uM, read-out: Inhibition (%); for inhibition at 3.3 µM: secondary screening at 3.3 uM, read-out: % Inhibition (3.3 uM)
[1] = primary screening at 10 uM, treated vs control

Compound	Hs18S ΔCT (HCT-8 host cells (Hs18S); human, 41 h, 10 μM)	Hs18S ΔCT (HCT-8 host cells (Hs18S); [1])	cytotoxicity at 10 µM (in vitro)	inhibition at 10 µM (Cryptosporidium parvum)	cytotoxicity at 41 h, 10 µM (in vitro; human)	inhibition at 3.3 µM (Cryptosporidium parvum)	Hs18S ΔCT (HCT-8 host cells (Hs18S))	cytotoxicity at 41 h, 10 µM (in vitro)
COc1cc2c(cc1O)C[C@H]1c3c(cc(O)c(OC)c3-2)CCN1C [BOLDINE]		-0.34	-26.4%	-28.6%				
COc1cc2c(cc1OC)[C@@]13CCN4CC5=CCO[C@H]6CC(=O)N2[C@H]1[C@H]6[C@H]5C[C@H]43 [BRUCINE]		-0.11	-8.2%	49.9%				
Cn1c(=O)c2c(ncn2C)n(C)c1=O [CAFFEINE]			16.9%	3.94%			0.27	
CC[C@@]1(O)C(=O)OCc2c1cc1n(c2=O)Cc2cc3ccccc3nc2-1 [CAMPTOTHECIN]		1.35	60.8%	76%		59%		
N=C(N)NOCC[C@H](N)C(=O)O [CANAVANINE]		0.29	18.4%	-3.4%				
COc1cc(CNC(=O)CCCC/C=C/C(C)C)ccc1O [CAPSAICIN]		0.00	0.1%	-54.2%				
CC(=O)Oc1cc(OC(C)=O)c2c(c1)O[C@H](c1ccc(OC(C)=O)c(OC(C)=O)c1)[C@@H](OC(C)=O)C2 [CATECHIN PENTAACETATE]		-0.26	-19.6%	10.7%				
CC(=O)O[C@]1(C)CC[C@@]23C[C@@H]1C(C)(C)[C@@H]2CC[C@H]3C [CEDRYL ACETATE]		0.05	3.6%	9.38%				
CN(C)[C@@H]1C(O)=C(C(N)=O)C(=O)[C@@]2(O)C(O)=C3C(=O)c4c(O)ccc(Cl)c4[C@@](C)(O)[C@H]3C[C@@H]12 [CHLORTETRACYCLINE HYDROCHLORIDE]		-0.03	-2%	-14.1%				
C=C1CC[C@H](O)C/C1=C/C=C1\CCC[C@]2(C)[C@@H]([C@H](C)CCCC(C)C)CC[C@@H]12 [CHOLECALCIFEROL]		-0.21	-15.8%	0.08%				
CC(C)CCC[C@@H](C)[C@H]1CC[C@H]2[C@@H]3CC=C4CC(=O)CC[C@]4(C)[C@H]3CC[C@]12C [CHOLEST-5-EN-3-ONE]	0.04			-37.5%	2.7%			
CC(C)CCC[C@@H](C)[C@H]1CC[C@H]2[C@@H]3CC[C@H]4CC(=O)CC[C@]4(C)[C@H]3CC[C@]12C [CHOLESTAN-3-ONE]		-0.48		-36.7%				-39.9%
CC(C)CCC[C@@H](C)[C@H]1CC[C@H]2[C@@H]3CC=C4C[C@@H](O)CC[C@]4(C)[C@H]3CC[C@]12C [CHOLESTEROL]	-0.05		-3.8%	-26.8%				
COC(=O)CC[C@@H](C)[C@H]1CC[C@H]2[C@@H]3[C@H](O)C[C@@H]4C[C@H](O)CC[C@]4(C)[C@H]3C[C@H](O)[C@]12C [CHOLIC ACID, METHYL ESTER]	-0.11			42.1%	-7.7%			
CCOC(=O)C1C(C=C(C)C)C1(C)C (stereo not shown) [CHRYSANTHEMIC ACID, ETHYL ESTER]		-0.97		24.6%		91%		-95.7%
CC(C)=CC1C(C(=O)O)C1(C)C (stereo not shown) [CHRYSANTHEMIC ACID]		-0.32	-24.6%	-13.4%				
COc1cc(OC)c2c(=O)cc(-c3ccccc3)oc2c1 [CHRYSIN DIMETHYL ETHER]		-0.12	-8.6%	90.3%		-69%		
C=C[C@H]1CN2CC[C@H]1C[C@H]2[C@H](O)c1ccnc2ccccc12 [CINCHONIDINE]		-0.20		3.76%				-15.2%
C=C[C@H]1C[N@@]2CC[C@H]1C[C@@H]2[C@@H](O)c1ccnc2ccccc12 [CINCHONINE]		0.01		-10.5%				0.4%
O=C(O)/C=C/c1ccccc1 [CINNAMIC ACID]		-0.39	-31%	2.86%				

Now from value to compound, other results behind:

Hs18S ΔCT (HCT-8 host cells (Hs18S); human, 41 h, 10 μM)	Compound	Hs18S ΔCT (HCT-8 host cells (Hs18S); [1])	cytotoxicity at 10 µM (in vitro)	inhibition at 10 µM (Cryptosporidium parvum)	cytotoxicity at 41 h, 10 µM (in vitro; human)	inhibition at 3.3 µM (Cryptosporidium parvum)	Hs18S ΔCT (HCT-8 host cells (Hs18S))	cytotoxicity at 41 h, 10 µM (in vitro)
0.03	O=C1C=C2CC3(O)COc4cc(O)ccc4C3=C2C=C1O (stereo not shown) [BRAZILEIN]			-12.2%	2.2%			
-0.12	Oc1ccc2c(c1)OC[C@]1(O)Cc3cc(O)c(O)cc3[C@H]21 [BRAZILIN]			8.3%	-8.9%			
-0.33	COC(=O)C[C@H]1C2(C)CC34OC5(C)O[C@@]6([C@H](OC(C)=O)C(OC(C)=O)[C@]7(C)C(/C(=C(/O)C(C)C)C(=O)O[C@H]7c7ccoc7)[C@@]6(O5)[C@H](OC(C)=O)[C@@]3(O)C2OC(=O)C(C)C)[C@]14C (stereo partly shown) [BUSSEIN]			85.1%	-25.3%	34%		
-0.34	O=C(O)/C=C/c1ccc(O)c(O)c1 [CAFFEIC ACID]			18.9%	-26.2%			
-0.08	CC1=C(/C=C/C(C)=C/C=C/C(C)=C/C=C/C=C(C)/C=C/C=C(C)/C=C/C(=O)[C@]2(C)C[C@@H](O)CC2(C)C)C(C)(C)C[C@H](O)C1 [CAPSANTHIN]			-5.31%	-5.5%			
-0.07	COC(=O)C[C@H]1C(C)(C)C(=O)[C@@H]2CC3C4=CC(=O)O[C@@H](c5ccoc5)[C@]4(C)CC[C@@H]3[C@@]1(C)C2=O (stereo partly shown) [CARAPIN]			30.7%	-5.2%			
-0.10	Cc1c(C(=O)O)c(O)cc2c1C(=O)c1c(O)c([C@@H]3O[C@H](CO)[C@@H](O)[C@H](O)[C@H]3O)c(O)c(O)c1C2=O [CARMINIC ACID]			-24.9%	-7.5%			
0.08	NCCC(=O)N[C@@H](Cc1cnc[nH]1)C(=O)O [CARNOSINE]			41.1%	5.5%			
-0.27	COc1cc(O)c(C(=O)c2ccccc2)cc1O [CEAROIN]			-22.5%	-21%			
-0.11	C[C@@H]1CC[C@H]2C(C)(C)[C@H]3C[C@@]12CC[C@@]3(C)O [CEDROL]			-4.53%	-7.7%			
0.33	COc1ccc2cc1Oc1ccc(cc1)C[C@H]1c3c(cc4c(c3Oc3cc5c(cc3OC)CCN(C)[C@@H]5C2)OCO4)CCN1C [CEPHARANTHINE]			16.8%	20.5%			
-0.15	CCOC(=O)CCCCCCCCCCCCC1C=CCC1 (stereo not shown) [CHAULMOOGRIC ACID, ETHYL ESTER]			-0.95%	-10.8%			
-0.58	O=C(O)CCCCCCCCCCCC[C@@H]1C=CCC1 [CHAULMOOGRIC ACID]			-4.94%	-49.1%			
0.27	C[C@H](CCC(=O)O)[C@H]1CC[C@H]2[C@@H]3[C@H](O)C[C@@H]4C[C@H](O)CC[C@]4(C)[C@H]3CC[C@]12C [CHENODIOL]			77.7%	17.2%			
-0.13	O=C(/C=C/c1ccc(O)c(O)c1)O[C@@H]1C[C@](O)(C(=O)O)C[C@@H](O)[C@H]1O [CHLOROGENIC ACID]			-24.5%	-9.1%			
-0.13	CC(C)=CC1C(CO)C1(C)C (stereo not shown) [CHRYSANTHEMYL ALCOHOL]			-16.9%	-9.5%			
0.48	Cc1cc(O)c2c(O)c3c(O)cccc3cc2c1 [CHRYSAROBIN]			-8.96%	28.2%			
0.14	O=c1cc(-c2ccccc2)oc2cc(O)cc(O)c12 [CHRYSIN]			20.3%	9.3%			
0.17	Cc1cc(O)c2c(c1)C(=O)c1cccc(O)c1C2=O [CHRYSOPHANOL]			-71.6%	11.4%			
-0.20	Oc1cc(O)c2c(c1)O[C@H](c1ccc(O)c(O)c1)[C@@H](O)C2 [CIANIDANOL]			2%	-14.9%			
